Experimental data published in patent US8669282B2, “Companion animal compositions including lipoic acid and methods of use thereof” (Hill's Pet Nutrition, Inc., priority 2000, dated 2014).

How the values were obtained:
[1] = tested on: GSH:GSSG; assay: GSH:GSSG ratio in blood lymphocytes of dogs fed dl-alpha-lipoic acid in extruded food; type: in vivo; conditions: chronic feeding in diet
Excerpt: Thirty (30) adult, random source, dogs were utilized for this study. Dogs were at least 10 months of age, not pregnant, not lactating and of reasonable body weight prior to start of test. Animals were randomized into 5 groups for dietary treatment with 3 males and 3 females per each group.
All dogs were fed a control food (0 ppm dl-alpha-lipoic acid added) that met or exceeded all recommendations for nutrients as proposed by the American Association of Feed Control Officials (AAFCO 2000) during a 2 week prefeeding period (Table 2). Following the prefeeding period dogs were randomized into 5 treatment groups with one of the following dl-alpha lipoic acid target-inclusions (dry matter basis): 0 ppm, 150 ppm, 1500 ppm, 3000 ppm, 4500 ppm. […]
Solvents and separation conditions were as described (Fariss, Jones). Levels of GSH and GSSG were quantified relative to authentic standards. […]
Comparison of values for clinical chemistry, hematology and body weights vs baseline were analyzed by way of paired t-test on SAS for windows with significance set at P<0.05. Means of values at each measured time point were separated by a one-way ANOVA with significance set at P<0.05. The difference in GSH:GSSG between day 84 and baseline were analyzed between groups by way of SAS for windows in a one-way ANOVA with significance set at P<0.05.

[2] = tested on: genes related to cartilage and energy metabolism; assay: Differential gene expression profile, whole blood RNA, canine 2 Affymetrix genechips; type: in vivo, dogs
Excerpt: Thirty (30) dogs were used to determine the effect of lipoic acid when compared to an AAFCO control food or a test food containing fish oil.
A differential gene expression profile was studied between an AAFCO control food, a food containing fish oil, and a food containing lipoic acid. At a minimum of 1.3 fold change, a list of 1212 genes was generated compared to the AAFCO control and 1896 genes compared to the food containing fish oil at d 30.
Total RNAs were isolated from whole blood samples using the PAXgene RNA isolation kit. All measurements were done with the canine 2 Affymetrix genechips. For statistical analysis, all measurements were normalized with RMA. All analysis was preformed using Partek. An ANOVA t-test was performed for genes that are differentially expressed between the control and test foods were selected based on p-value cutoff 0.1, fold change>+/−1.3.
Table 9 illustrates the change in genes related to cartilage metabolism and energy metabolism in dogs after being fed a control diet compared with dogs fed a control plus fish oil and a control plus lipoic acid for 90 days.

[3] = tested on: canine bone cells; assay: Genes related to cartilage metabolism altered in canine bone cells; type: in vivo, dogs; conditions: 90 days
Excerpt: Table 8 illustrates the directional change (up regulation or down regulation) in genes related to cartilage metabolism in dogs after being fed a control diet compared with dogs fed a control plus fish oil and a control plus lipoic acid for 90 days in canine bone cells.

[4] = tested on: plasma metabolites; assay: Plasma metabolomics, fold change at day 30; type: in vivo, dogs
Protocol: Plasma metabolites were analyzed and were compared as fold change relative to the control fed dogs.
Table 5 illustrates the change in pyruvate blood levels in of dogs fed a control diet compared with dogs fed a control plus fish oil and a control plus lipoic acid.
Table 22 illustrates change in metabolite measured in blood samples for dogs after being fed a control diet compared with dogs fed a pet food including lipoic acid for 30 days.

[5] = tested on: cartilage markers (CPII, CTXII, COMP); assay: Serum cartilage (arthritic) markers by ELISA; type: in vivo, dogs; conditions: for Change CPII / Change CTXII / CPII: blood
Protocol: Serum cartilage markers were measured using ELISA based kits to determine concentrations of cartilage markers. Day 0 was used as a covariate in the analysis to adjust for baseline values.
Table 7 illustrates the change in blood level of arthritic markers in dogs after being fed a control diet compared with dogs fed a control plus fish oil and a control plus lipoic acid for 30 days and measured again at day 90.
Table 12 illustrates arthritic makers measured in blood samples for dogs after being fed a control diet compared with dogs fed a pet food including lipoic acid for 90 days.

[6] = test food containing 150 ppm lipoic acid, fold change >+/-1.3, p cutoff 0.1
[7] = blood, day 30, day 0 as covariate

O=C(O)CCCCC1CCSS1 (racemic) [Lipoic acid, dl-alpha-lipoic acid]
reduced glutathione (GSH) to oxidized glutathione (GSSG) ratio, in words [1]: improves | Fold change Facilitated glucose transporter 6 ([2]; lipoic acid vs. control): 1.3 | Fold change chondroitan sulfate protcoglycan 2 (veriscan) ([2]; lipoic acid vs. control): 1.5 | Fold change N-acetylgalactosaminyl-transferase 1 ([2]; lipoic acid vs. fish oil): 1.3 | number of genes with altered expression vs AAFCO control food [2, 6]: 1212 genes | number of genes with altered expression vs test food containing fish oil [2, 6]: 1896 genes | MMP3 gene, directional change ([3]; probe 1582602_at): Down | TIMP2 gene, directional change ([3]; probe 1582708_at): up | Prolyl 4-hydroxylase gene, directional change ([3]; probe 1600479_at): up | Fold change in pyruvate, Lipoic acid vs Control [4, 7]: 0.5379 | Fold change in pyruvate, Lipoic acid vs Fish oil [4, 7]: 0.6274 | metabolite hydroxyproline in plasma, in words ([4]; dogs fed a food containing lipoic acid): reduced | Change CPII ([5]; Day 30): −95.10 | Change CTXII ([5]; Day 30): −5.60 | CPII ([5]; Day 30, d 0 as covariate): 986.28 ng/mL | Change CPII ([5]; Day 90): −232.70 | Change CTXII ([5]; Day 90): −0.59 | CPII ([5]; Day 90, d 0 as covariate): 848.0 ng/mL | type II collagen C-propeptide and carboxy-terminal crosslinked telopeptide fragment of type II collagen, in words ([5]; compared with a similar food without lipoic acid): greater decrease
